Results reported in patent US20250361239A1, “PROTEIN DEGRADERS AND USES THEREOF” (ZHUHAI YUFAN BIOTECHNOLOGIES CO., LTD., priority 2022, published 2025).

Key:
HL60 cells = assay: HL60 cell killing experiment (CellTiter-Glo cell viability); type: cell-based; conditions: Homo sapiens, HL-60, 48 h incubation, CTG luminescence
Procedure: HL60 cell lines were purchased from ATCC (Cat #ATCC® CCL-240™), IMDM media were purchased from ATCC (Cat #ATCC® 30-2005™), FBS was purchased from Gibco (Cat #10091148), celltiter-glo luminescent cell viability assay was purchased from promega (Cat #G7572), and 96-well plates were purchased from corning (Cat #3610).
The effect of compounds on the growth of HL60 cells was determined by measuring cell viability. Firstly, cells in the logarithmic growth phase were collected and centrifuged, and the culture supernatant was discarded. The centrifuged cells were resuspended in a fresh complete medium, and the cell density was adjusted to 5×10^4 cells/mL. The resuspended cells were inoculated into two opaque 96-well cell culture plates at 100 μL of cell suspension per well, and the cell culture plates were incubated in a cell incubator at 37° C. for 4 h. After 4 h, dilutions (20 μL) of compounds with different concentrations were added. After one of the cell plates was cooled to room temperature, 60 μL of CTG reagent was added, and the luminescence values were read on the instrument as G0. The other one was incubated in a cell incubator for 48 h. After 48 h, 60 μL of CTG reagent was added, and the luminescence values were read on the instrument as G3.
According to the corresponding proliferation rate and concentration of each gradient concentration well, a gradient curve of cell proliferation was fitted using XLFit software, and the GI50 values of compounds were calculated.

GSPT1 = target: T1, GSPT1 (Homo sapiens, UniProt P15170+Q96SW2); assay: Degradation of GSPT1 by the compounds (HiBiT signal in GSPT1/HEK293 hibit cells); type: cell-based; conditions: 6 h incubation, Nano Glo HiBiT Lytic Detection
T1 construct: host or cells: HEK293
Procedure: GSPT1/HEK293 hibit cell lines were constructed by Shanghai BioDuro Co., Ltd., HEK293 cell lines were purchased from ATCC (Cat #ATCC® CRL-1573™), DMEM media were purchased from ATCC (Cat #ATCC® 30-2002™), FBS was purchased from Gibco (Cat #10091148), Nano Glo HiBiT Lytic Detection System was purchased from Promega (Cat #N3040), and 96-well plates were purchased from coming (Cat #3610).
The degradation of GSPT1 by the compounds was determined by measuring the intensity of hibit signals in cells. Firstly, the cells were digested with pancreatin, and the digestion was then terminated with medium. The cells were centrifuged, and the supernatant was discarded. The centrifuged cells were resuspended in a fresh complete medium, and the cell density was adjusted to 2.5×10^4 cells/mL. The resuspended cells were inoculated into an opaque 96-well cell culture plate at 100 μL of cell suspension per well, and the cell culture plate was incubated in a cell incubator at 37° C. overnight. The next day, dilutions (20 μL) of compounds with different concentrations were added, and the plate was incubated in a cell incubator for 6 h. After 6 h, 60 μL of Nano Glo HiBiT Lytic Detection System reagent was added and the luminescence values were read on the instrument.
According to the corresponding degradation rate and concentration of each gradient concentration well, a gradient curve of degradation rate was fitted using XLFit software, and the DC50 values of compounds were calculated.

T1 sequence (P15170 whole entry): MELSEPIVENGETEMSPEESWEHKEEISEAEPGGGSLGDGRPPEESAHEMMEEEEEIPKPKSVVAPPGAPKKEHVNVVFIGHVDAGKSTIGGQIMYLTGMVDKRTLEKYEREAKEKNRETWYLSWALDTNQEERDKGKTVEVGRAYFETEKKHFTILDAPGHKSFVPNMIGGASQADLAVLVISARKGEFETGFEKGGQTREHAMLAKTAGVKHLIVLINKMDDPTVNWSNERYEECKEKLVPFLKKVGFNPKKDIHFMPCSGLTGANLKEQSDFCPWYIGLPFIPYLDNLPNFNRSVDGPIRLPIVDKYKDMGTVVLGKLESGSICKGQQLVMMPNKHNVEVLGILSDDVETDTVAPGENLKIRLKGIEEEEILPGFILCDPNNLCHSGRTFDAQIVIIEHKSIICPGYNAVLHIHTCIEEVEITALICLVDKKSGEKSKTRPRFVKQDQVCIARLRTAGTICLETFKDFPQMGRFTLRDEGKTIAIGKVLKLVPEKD
T1 sequence (Q96SW2 whole entry): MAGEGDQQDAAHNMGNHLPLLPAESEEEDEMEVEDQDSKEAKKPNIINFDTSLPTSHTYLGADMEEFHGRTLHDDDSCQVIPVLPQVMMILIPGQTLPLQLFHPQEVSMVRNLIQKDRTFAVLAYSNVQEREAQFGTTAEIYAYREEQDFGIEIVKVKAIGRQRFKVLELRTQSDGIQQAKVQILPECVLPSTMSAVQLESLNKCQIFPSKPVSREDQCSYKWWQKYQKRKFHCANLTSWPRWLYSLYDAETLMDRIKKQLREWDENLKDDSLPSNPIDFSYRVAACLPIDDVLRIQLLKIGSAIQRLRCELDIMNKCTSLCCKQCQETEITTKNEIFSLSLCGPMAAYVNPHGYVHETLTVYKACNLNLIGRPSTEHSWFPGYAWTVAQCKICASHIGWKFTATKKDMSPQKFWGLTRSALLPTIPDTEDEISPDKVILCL
T1 sequence (Q16531 whole entry partner): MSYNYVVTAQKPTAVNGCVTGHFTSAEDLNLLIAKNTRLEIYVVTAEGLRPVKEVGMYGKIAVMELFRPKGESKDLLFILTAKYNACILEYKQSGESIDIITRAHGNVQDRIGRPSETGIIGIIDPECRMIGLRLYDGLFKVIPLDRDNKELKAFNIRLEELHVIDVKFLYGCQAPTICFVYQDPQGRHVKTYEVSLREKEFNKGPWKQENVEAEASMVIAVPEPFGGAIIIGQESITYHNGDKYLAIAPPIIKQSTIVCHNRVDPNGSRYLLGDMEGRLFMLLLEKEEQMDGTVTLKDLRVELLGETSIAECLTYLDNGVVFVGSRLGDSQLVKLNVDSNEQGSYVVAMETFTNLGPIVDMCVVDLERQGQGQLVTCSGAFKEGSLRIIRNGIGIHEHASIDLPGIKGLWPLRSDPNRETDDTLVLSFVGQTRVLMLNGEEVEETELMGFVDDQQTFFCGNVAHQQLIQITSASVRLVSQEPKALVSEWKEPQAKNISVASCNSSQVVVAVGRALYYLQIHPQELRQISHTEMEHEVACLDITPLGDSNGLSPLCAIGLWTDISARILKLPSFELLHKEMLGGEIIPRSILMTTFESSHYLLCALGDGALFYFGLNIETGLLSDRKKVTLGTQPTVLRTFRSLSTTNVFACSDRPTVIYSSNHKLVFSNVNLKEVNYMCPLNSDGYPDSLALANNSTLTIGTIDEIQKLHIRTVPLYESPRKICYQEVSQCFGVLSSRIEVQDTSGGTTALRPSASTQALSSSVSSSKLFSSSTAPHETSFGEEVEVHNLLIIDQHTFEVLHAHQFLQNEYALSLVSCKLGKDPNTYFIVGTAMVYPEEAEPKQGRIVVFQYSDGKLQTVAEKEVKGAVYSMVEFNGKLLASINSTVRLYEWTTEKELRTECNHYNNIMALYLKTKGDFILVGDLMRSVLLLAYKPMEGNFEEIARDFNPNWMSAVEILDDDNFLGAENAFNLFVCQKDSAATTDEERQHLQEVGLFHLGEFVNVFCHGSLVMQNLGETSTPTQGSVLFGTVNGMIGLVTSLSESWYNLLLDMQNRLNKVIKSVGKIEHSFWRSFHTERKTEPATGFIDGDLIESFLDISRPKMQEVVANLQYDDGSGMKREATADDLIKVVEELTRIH

| Structure (SMILES) | DC50 (GSPT1) [µM] | GI50 (HL60 cells) [µM] |
| --- | --- | --- |
| CCn1c(C2CCC(NC(=O)c3cccc(CNc4cccc5c4C(=O)N(C4CCC(=O)NC4=O)C5=O)c3)CC2)nc2ccncc21 (stereo not shown) [Example 71] | < 0.1 | < 0.1 |
| Cn1c(C2CCC(NC(=O)c3cc(CNc4cccc5c4C(=O)N(C4CCC(=O)NC4=O)C5=O)ccc3F)CC2)nc2ccncc21 (stereo not shown) [Example 77] | < 0.1 | < 0.1 |
| CN(C(=O)c1cc(CNc2cccc3c2C(=O)N(C2CCC(=O)NC2=O)C3=O)ccn1)[C@H]1CC[C@H](c2nc3cccnc3s2)CC1 (stereo partly shown) [Example 79] | < 0.1 | < 0.1 |
| O=C1CCC(N2C(=O)c3cccc(NCc4ccc(F)c(C(=O)N[C@H]5CC[C@H](c6nc7cccnc7s6)CC5)c4)c3C2=O)C(=O)N1 (stereo partly shown) [Example 80] | < 0.1 | < 0.1 |
| O=C1CCC(N2C(=O)c3cccc(NCc4cccc(C(=O)NC5CCC(c6nc7cccnc7n6C6CC6)CC5)c4)c3C2=O)C(=O)N1 (stereo not shown) [Example 82] | < 0.1 | < 0.1 |
| CCCn1c(C2CCC(NC(=O)c3cccc(CNc4cccc5c4C(=O)N(C4CCC(=O)NC4=O)C5=O)c3)CC2)nc2cccnc21 (stereo not shown) [Example 84] | < 0.1 | < 0.1 |
| COc1ccc2c(c1)nc(C1CCC(NC(=O)c3cccc(CNc4cccc5c4C(=O)N(C4CCC(=O)NC4=O)C5=O)c3)CC1)n2C (stereo not shown) [Example 85] | < 0.1 | < 0.1 |
| CNc1ccc2c(c1)nc(C1CCC(NC(=O)c3cccc(CNc4cccc5c4C(=O)N(C4CCC(=O)NC4=O)C5=O)c3)CC1)n2C (stereo not shown) [Example 86] | < 0.1 | < 0.1 |
| COc1ccc(CNc2cccc3c2C(=O)N(C2CCC(=O)NC2=O)C3=O)cc1C(=O)N[C@H]1CC[C@H](c2nc3ncccc3s2)CC1 (stereo partly shown) [Example 95] | < 0.1 | < 0.1 |
| COc1cnc2sc([C@H]3CC[C@H](C(=O)Nc4cccc(CNc5cccc6c5C(=O)N(C5CCC(=O)NC5=O)C6=O)c4)CC3)nc2c1 (stereo partly shown) [Example 98] | < 0.1 | < 0.1 |
| COc1ccc(CNc2cccc3c2C(=O)N(C2CCC(=O)NC2=O)C3=O)cc1C(=O)N[C@H]1CC[C@H](c2nc3ccncc3s2)CC1 (stereo partly shown) [Example 99] | < 0.1 | < 0.1 |
| Cn1c(C2CCC(NC(=O)c3cccc(CNc4cccc5c4C(=O)N(C4CCC(=O)NC4=O)C5=O)c3)CC2)nc2c3cc[nH]c3ncc21 (stereo not shown) [Example 100] | < 0.1 | < 0.1 |
| O=C1CCC(N2C(=O)c3cccc(NCc4cccc(C(=O)NC5CCC(c6nc7ccncc7n6C6COC6)CC5)c4)c3C2=O)C(=O)N1 (stereo not shown) [Example 101] | < 0.1 | < 0.1 |
| O=C1CCC(N2C(=O)c3cccc(NCCCCC(=O)NC4CCC(c5nc6c(cnc7[nH]cc(C8CCOCC8)c76)[nH]5)CC4)c3C2=O)C(=O)N1 (stereo not shown) [Example 109] | < 0.1 | < 0.1 |
| Cn1c(C2CCC(NC(=O)CCCCNc3cccc4c3C(=O)N(C3CCC(=O)NC3=O)C4=O)CC2)nc2c3c(C4CCCCC4)c[nH]c3ncc21 (stereo not shown) [Example 110] | < 0.1 | < 0.1 |
| Cn1cc(C2CCOCC2)c2c3nc(C4CCC(NC(=O)CCCCNc5cccc6c5C(=O)N(C5CCC(=O)NC5=O)C6=O)CC4)[nH]c3cnc21 (stereo not shown) [Example 112] | < 0.1 | < 0.1 |
| O=C1CCC(N2C(=O)c3cccc(NCc4cccc(C(=O)NC5CCC(c6nc7c(cnc8[nH]cc(C9CCOCC9)c87)[nH]6)CC5)c4)c3C2=O)C(=O)N1 (stereo not shown) [Example 115] | < 0.1 | < 0.1 |
| O=C1CCC(N2C(=O)c3cccc(NCc4ccc(C(=O)NC5CCC(c6nc7c(cnc8[nH]cc(C9CCOCC9)c87)[nH]6)CC5)cc4)c3C2=O)C(=O)N1 (stereo not shown) [Example 116] | < 0.1 | < 0.1 |
| Cn1c2cc(N)ccc2nc1[C@H]1CC[C@H](NC(=O)c2cc(CNc3cccc4c3C(=O)N(C3CCC(=O)NC3=O)C4=O)ccn2)CC1 (stereo partly shown) [Example 130] | < 0.1 | < 0.1 |

More lines, main results first:

| DC50 (GSPT1) [µM] | Structure (SMILES) | GI50 (HL60 cells) [µM] |
| --- | --- | --- |
| < 0.1 | Cn1c2cnccc2nc1[C@H]1CC[C@H](NC(=O)c2cccc(CNc3cccc4c3C(=O)N(C3CCC(=O)NC3=O)C4=O)c2)CC1 (stereo partly shown) [Example 34] | < 0.1 |
| < 0.1 | Cn1c(C2CCC(NC(=O)c3cc(CNc4cccc5c4C(=O)N(C4CCC(=O)NC4=O)C5=O)ccn3)CC2)nc2ccccc21 (stereo not shown) [Example 35] | < 0.1 |
| < 0.1 | Cn1c2ccncc2nc1[C@H]1CC[C@H](C(=O)Nc2cccc(CNc3cccc4c3C(=O)N(C3CCC(=O)NC3=O)C4=O)c2)CC1 (stereo partly shown) [Example 36] | < 0.1 |
| < 0.1 | Cn1c2cnccc2nc1[C@H]1CC[C@H](C(=O)Nc2cccc(CNc3cccc4c3C(=O)N(C3CCC(=O)NC3=O)C4=O)c2)CC1 (stereo partly shown) [Example 37] | < 0.1 |
| < 0.1 | O=C1CCC(N2C(=O)c3cccc(NCc4ccc5cn([C@H]6CC[C@H](c7nc8cccnc8s7)CC6)nc5c4)c3C2=O)C(=O)N1 (stereo partly shown) [Example 38] | < 0.1 |
| < 0.1 | Cn1c2cccnc2nc1[C@H]1CC[C@H](NC(=O)c2cc(CNc3cccc4c3C(=O)N(C3CCC(=O)NC3=O)C4=O)ccn2)CC1 (stereo partly shown) [Example 42] | < 0.1 |
| < 0.1 | Cn1c2ncccc2nc1[C@H]1CC[C@H](NC(=O)c2cc(CNc3cccc4c3C(=O)N(C3CCC(=O)NC3=O)C4=O)ccn2)CC1 (stereo partly shown) [Example 43] | < 0.1 |
| < 0.1 | O=C1CCC(N2C(=O)c3cccc(NCc4cccc(C(=O)NC5CCC(c6cc7ccccc7s6)CC5)c4)c3C2=O)C(=O)N1 (stereo not shown) [Example 44] | < 0.1 |
| < 0.1 | Cn1c(C2CCC(NC(=O)c3cc(COc4cccc5c4C(=O)N(C4CCC(=O)NC4=O)C5=O)ccn3)CC2)nc2ccncc21 (stereo not shown) [Example 48] | < 0.1 |
| < 0.1 | O=C1CCC(N2C(=O)c3cccc(NCc4cccc(C(=O)NC5CCC(c6nc7ccccc7s6)CC5)c4)c3C2=O)C(=O)N1 (stereo not shown) [Example 49] | < 0.1 |
| < 0.1 | O=C1CCC(N2C(=O)c3cccc(NCc4cccc(C(=O)NC5CCC(c6cc7ccncc7s6)CC5)c4)c3C2=O)C(=O)N1 (stereo not shown) [Example 50] | < 0.1 |
| < 0.1 | O=C1CCC(N2C(=O)c3cccc(NCc4cccc(C(=O)NC5CCC(c6cc7cnccc7s6)CC5)c4)c3C2=O)C(=O)N1 (stereo not shown) [Example 51] | < 0.1 |
| < 0.1 | O=C1CCC(N2C(=O)c3cccc(NCc4cccc(C(=O)NC5CCC(c6csc7ccncc67)CC5)c4)c3C2=O)C(=O)N1 (stereo not shown) [Example 56] | < 0.1 |
| < 0.1 | O=C1CCC(N2C(=O)c3cccc(NCc4cccc(C(=O)NC5CCC(c6nc7cccnc7s6)CC5)c4)c3C2=O)C(=O)N1 (stereo not shown) [Example 57] | < 0.1 |
| < 0.1 | O=C1CCC(N2C(=O)c3cccc(NCc4cccc(NC(=O)[C@H]5CC[C@H](c6nc7cccnc7s6)CC5)c4)c3C2=O)C(=O)N1 (stereo partly shown) [Example 59] | < 0.1 |
| < 0.1 | O=C1CCC(N2C(=O)c3cccc(NCc4cccc(C(=O)NC5CCC(c6csc7cncnc67)CC5)c4)c3C2=O)C(=O)N1 (stereo not shown) [Example 60] | < 0.1 |
| < 0.1 | O=C1CCC(N2C(=O)c3cccc(NCc4cccc(NC(=O)[C@H]5CC[C@H](c6nc7cccnc7s6)CC5)n4)c3C2=O)C(=O)N1 (stereo partly shown) [Example 62] | < 0.1 |
| < 0.1 | O=C1CCC(N2C(=O)c3cccc(NCc4cccc(C(=O)NC5CCC(c6cc7sccc7s6)CC5)c4)c3C2=O)C(=O)N1 (stereo not shown) [Example 66] | < 0.1 |
| < 0.1 | Cn1c(C2CC3(CC(NC(=O)c4cccc(CNc5cccc6c5C(=O)N(C5CCC(=O)NC5=O)C6=O)c4)C3)C2)nc2ccncc21 (stereo not shown) [Example 69] | < 0.1 |
